Like-named read-outs stand apart in the source and are kept apart here.
Assays:
[1] = tested on: Trypanosoma brucei rhodesiense; assay: Growth of Trypanosoma brucei rhodesiense in axenic culture (growth inhibition); type: cell-based
Description: (§1) 1. TRYPANOSOMES: Stabilates of two clones, GUP 2889 and GUP 2814 were used.
Prior to propagation in vitro cell free culture conditions the parasites from stabilates were expanded in CD1 (8-9 week old) female mice. Infected mouse blood obtained by cardiac puncture in EMEM* with 20 U/ml heparin was used for the preparation of blood smears for immunofluorescence analysis.
(§2) Antibody mediated lysis of a specific VAT of bloodstream form trypanosomes was performed by incubating an appropriate aliquot of a recently prepared trypanosome suspension at room temperature for 1 hour, in appropriately diluted specific antibody and guinea pig complement. The trypanosomes were observed and counted with inverted phase-contrast microscopy at a magnification of 150× to check for viability and to observe lysed trypanosomes, which appeared stumpy and vacuolated.
(§3) Cultures were initiated with aliquots of the above prepared trypanosome suspension. Duplicate T25 flasks, with 10 ml of medium were prepared for each experimental parameter examined. In each experiment the trypanosome density was determined at the initiation of the culture and at the end of the axenic culture period (usually after 18-24 hours) using a Neubaurer haemocytometer.
(§4) The instantaneous rate of switching/cell/generation, σi, has been calculated. These values of σ are estimates of the per capita rate for switching to minor VATs. However, these estimates have been made in populations manipulated to consist of a major VAT, the prevalence of which is much higher than that of minor VATs; switching from minor to major VATs has therefore been assumed to be negligible, as has interswitching between minor VATs. Growth rates, r, have been expressed as population doubling times Td, where Td=loge2/r. Switching rates values are presented in the tables as finite, of, rate estimates.
Two clones of Trypanosoma brucei rhodesiense, GUP 2889 and […] were initiated in culture with viable trypanosomes after in vitro trypanolysis of heterotype VAT 1.22 with GUPM 27.1 monoclonal antibody. Viable populations of these trypanosomes were incubated with various concentrations of the poly(ADP-Ribose)polymerase inhibitors. The effect of each concentration of inhibitor was tested in duplicate in T25 culture flasks set up for the axenic culture inhibition experiments. Growth was monitored after 24 hours of incubation at 37° C. in 4-5% CO2 in air. Relative growth inhibition and frequency of antigenic switching of were calculated.
In this assay a continuously growing bloodstream form trypanosome population was incubated in serial inhibitor dilutions in T25 culture flasks using an inoculum of 2×10^4 ·1×10^5 trypanosomes per ml. After an incubation period of 24-48 hours in axenic culture at 37° C. in a 4-5% CO2 incubator, trypanosomes were counted using a haemocytometer and growth inhibition was determined based on the number of generations (kt) of inhibitor treated cultures compared to controls. […] Growth is reduced by up to 17% when 3-N-formylluminol(3-N-FL) is present in the concentration range of 50-400 μM, Table 7.

[2] = target: poly(ADP-ribose)polymerase (Homo sapiens, UniProt P09874); assay: Determination of inhibitory effect on poly(ADP-ribose)polymerase (enzyme activity, Ki, Km); type: biochemical
Description: The enzyme activity was assayed by standard procedures (Murray, B. et al., Mutation Research (1986) 165:191-198). This reference also describes the estimation of the Km (Michaelis Constant) values. The estimation of the Ki (inhibitory constant) values was performed by calculating the Km value in the presence or absence of known concentrations of the enzyme inhibitor. Standard biochemical calculations were then used to calculate the Ki value. The smaller K1 values indicate stronger inhibition. The degree of enzyme inhibition shown in the Table was estimated by measuring the enzyme activity in the presence and absence of the indicated concentrations of inhibitor.

[3] = tested on: Trypanosoma brucei rhodesiense (GUP 2814); assay: Antigenic switching in Trypanosoma brucei rhodesiense (GUP 2814) in axenic culture, ILTat 1.63 to ILTat 1.22; type: cell-based
Description: as §1
Specific rabbit antisera and ascites fluid against specific Variable Antigen Types were used for trypanolysis and immunofluorescence at the appropriate dilutions.
as §2, §3
The prevalences of VATs in each cultures population were determined using immunofluorescence as follows: contents of one of the duplicate flasks (or both) were transferred to a universal bottle, and the trypanosomes were sedimented by centrifugation at 3,000 rpm at room temperature in a bench-top MSE centrifuge. The trypanosomes were resuspended in 10 μl of 20%(v/v) FCS supplemented EMEM* medium. Samples of this suspension were applied as smears to clean microscope slides coated with 0.1% poly-L-Lysine for immunofluorescence (IF) analysis for the frequency of specific VATs. Prevalence estimates of VATs were based on counts of more than 1000 labeled trypanosomes per flask.
Indirect immunofluorescence on acetone-fixed trypanosomes on slides was performed essentially according to the method of van Meirvenne et al., (Ann. Soc. Belge Med. Trop. (1975) 55: 1-23), using appropriately diluted rabbit antiserum or undiluted monoclonal lantibodies derived from hybridoma culture supernatants. Trypanosomes were visualized with fluorescein isothiocyanate(FITC)-labeled conjugated anti rabbit-FITC antibodies (Sigma:No.F-0382) for VAT 1.22 and 1.3, and with anti-mouse-FITC (Sigma:No.F-0257) for VATs 1.64c, 1.63a and 1.61. These secondary antibodies were diluted in PBS (pH8.0) and also contained Evans Blue (1:10,000 w/v) and Ethidium Bromide (5 μg/ml) as a counterstain.
Estimates of the prevalence of particular trypanosome VATs were based on counts of at least 200 trypanosomes, and at least 1000 trypanosomes were counted if the frequency of positive organisms were very low.
The rate of switching was estimated essentially as described by Turner and Barry (Parasitology (1989) 99: 67-75). Briefly, the size of the trypanosome population expressing aminor VAT was calculated at the time points […] as Nt1 and Nt2 respectively, from the mean total population density and from the prevalence of that VAT in the population.
as §4
Two clones of Trypanosoma brucei rhodesiense, GUP 2889 and […] were initiated in culture with viable trypanosomes after in vitro trypanolysis of heterotype VAT 1.22 with GUPM 27.1 monoclonal antibody. Viable populations of these trypanosomes were incubated with various concentrations of the poly(ADP-Ribose)polymerase inhibitors. […]

poly(ADP-ribose)polymerase, sequence (P09874 whole entry): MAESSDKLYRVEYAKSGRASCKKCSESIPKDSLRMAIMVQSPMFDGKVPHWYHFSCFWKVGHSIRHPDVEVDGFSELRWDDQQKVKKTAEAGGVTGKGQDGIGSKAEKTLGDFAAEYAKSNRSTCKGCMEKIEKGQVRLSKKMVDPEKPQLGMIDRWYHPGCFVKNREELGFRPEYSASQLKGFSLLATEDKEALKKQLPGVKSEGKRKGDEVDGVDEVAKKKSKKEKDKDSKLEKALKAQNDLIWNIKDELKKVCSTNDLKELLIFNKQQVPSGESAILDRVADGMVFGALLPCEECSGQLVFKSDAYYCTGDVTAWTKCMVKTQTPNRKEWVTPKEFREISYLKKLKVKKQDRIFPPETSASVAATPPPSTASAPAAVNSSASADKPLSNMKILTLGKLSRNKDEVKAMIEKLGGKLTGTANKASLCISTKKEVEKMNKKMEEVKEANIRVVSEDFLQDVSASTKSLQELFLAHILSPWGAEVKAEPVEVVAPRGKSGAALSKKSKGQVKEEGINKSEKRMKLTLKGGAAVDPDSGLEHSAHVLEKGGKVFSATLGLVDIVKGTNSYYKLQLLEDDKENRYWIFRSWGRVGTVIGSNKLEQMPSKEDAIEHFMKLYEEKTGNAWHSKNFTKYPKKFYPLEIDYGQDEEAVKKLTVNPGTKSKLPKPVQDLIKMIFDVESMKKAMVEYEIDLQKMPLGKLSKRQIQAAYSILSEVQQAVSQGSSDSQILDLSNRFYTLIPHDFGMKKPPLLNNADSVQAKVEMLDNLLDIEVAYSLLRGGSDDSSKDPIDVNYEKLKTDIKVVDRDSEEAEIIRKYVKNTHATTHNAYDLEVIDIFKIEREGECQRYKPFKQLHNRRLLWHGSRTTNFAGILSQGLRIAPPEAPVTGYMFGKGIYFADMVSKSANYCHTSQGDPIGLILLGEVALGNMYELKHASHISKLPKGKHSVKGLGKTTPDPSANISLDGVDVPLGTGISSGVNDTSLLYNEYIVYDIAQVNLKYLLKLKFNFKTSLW

`NC(=O)c1cccc(NC=O)c1` [Compound 1, 3-formylaminobenzamide] was tested, and the “reduction in growth rate” value ([1]; 0.5 to 2.0 mM) was 7%, the “kt (generation number)” value ([1]; GUP 2814, DHS/EMEM, 1.0 mM, control 2.44) was 2.29 doublings and the “kt (generation number)” value ([1]; GUP 2814, ES/EMEM (first experiment), 1.0 mM, control 2.02) was 1.56 doublings. The “kt (generation number)” value ([1]; GUP 2814, ES/EMEM (second experiment), 1.0 mM, control 2.36) was 2.14 doublings, the “kt (generation number)” value ([1]; GUP 2814, ES/EMEM, 0.5 mM, control 1.95) was 2.09 doublings and the “kt (generation number)” value ([1]; GUP 2814, FCS/EMEM, 1.0 mM, control 2.143) was 1.92 doublings. For the same compound, the activity at 500 µM ([1]; Trypanosoma brucei, RHODESIENSE, 0.5 mM, n = 6, control 1.00, read-out: Relative Growth Rate (S.D., n)) was 105 ± 13%, the activity at 1000 µM ([1]; Trypanosoma brucei, RHODESIENSE, 1.0 mM, n = 11, control 1.00, read-out: Relative Growth Rate (S.D., n)) was 103 ± 23% and the activity at 2000 µM ([1]; Trypanosoma brucei, RHODESIENSE, 2.0 mM, n = 6, control 1.00, read-out: Relative Growth Rate (S.D., n)) was 93 ± 22%. It also gave an activity at 1000 µM ([1]; Trypanosoma brucei, RHODESIENSE, GUP 2814, DHS/EMEM, 1.0 mM, control 100, read-out: Relative Growth) of 93.9%, an activity at 1000 µM ([1]; Trypanosoma brucei, RHODESIENSE, GUP 2814, ES/EMEM (first experiment), 1.0 mM, control 100, read-out: Relative Growth) of 77.2% and an activity at 1000 µM ([1]; Trypanosoma brucei, RHODESIENSE, GUP 2814, ES/EMEM (second experiment), 1.0 mM, control 100, read-out: Relative Growth) of 90.8%. The activity at 500 µM ([1]; Trypanosoma brucei, RHODESIENSE, GUP 2814, ES/EMEM, 0.5 mM, control 100, read-out: Relative Growth) was 107%, the activity at 1000 µM ([1]; Trypanosoma brucei, RHODESIENSE, GUP 2814, FCS/EMEM, 1.0 mM, control 100, read-out: Relative Growth) was 89.6% and the inhibition at 5 µM ([2]; 5.0 μM, read-out: Inhibitor Activity (%)) was 66%. The Ki ([2]; poly(ADP-ribose)polymerase, read-out: Ki (Inhibition Constant)) was 1.61 ± 0.15 µM, the “switching frequency, from ILTat 1.63 to 1.22” value ([3]; 1 mM, Horse Serum (Bristol), two of three experiments) was “reproducible reduction of switching frequency” and the “σf (finite switch rate per trypanosome per generation)” value ([3]; DHS/EMEM, 1.0 mM, control 210.8) was 117.0 x10^-2. The “σf (finite switch rate per trypanosome per generation)” value ([3]; ES/EMEM (first experiment), 1.0 mM, control 5.3) was 2.26 x10^-2, the “σf (finite switch rate per trypanosome per generation)” value ([3]; ES/EMEM (second experiment), 1.0 mM, control 2.17) was 0.94 x10^-2 and the “σf (finite switch rate per trypanosome per generation)” value ([3]; ES/EMEM, 0.5 mM, control 13.65) was 0.95 x10^-2. The “σf (finite switch rate per trypanosome per generation)” value ([3]; FCS/EMEM, 1.0 mM, control 0.46) was 0.72 x10^-2, the activity at 1000 µM ([3]; Trypanosoma brucei, RHODESIENSE, read-out: RAS (relative antigenic switching), DHS/EMEM, 1.0 mM, control 100) was 55.5% and the activity at 1000 µM ([3]; Trypanosoma brucei, RHODESIENSE, read-out: RAS (relative antigenic switching), ES/EMEM (first experiment), 1.0 mM, control 100) was 42.6%. For the same compound, the activity at 1000 µM ([3]; Trypanosoma brucei, RHODESIENSE, read-out: RAS (relative antigenic switching), ES/EMEM (second experiment), 1.0 mM, control 100) was 43.5%, the activity at 500 µM ([3]; Trypanosoma brucei, RHODESIENSE, read-out: RAS (relative antigenic switching), ES/EMEM, 0.5 mM, control 100) was 7% and the activity at 1000 µM ([3]; Trypanosoma brucei, RHODESIENSE, read-out: RAS (relative antigenic switching), FCS/EMEM, 1.0 mM, control 100) was 136%.

From patent US5719151A, “Substituted benzene compounds” (priority 1990, dated 1998)
